Experimental data: article PMC5513037, “Examining the influence of specificity ligands and ATP-competitive ligands on the overall effectiveness of bivalent kinase inhibitors” (Proteome Science, 2017)

Experiments:
Test in all cases: KAM-matrix competition in K562 lysate;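 for 0.001 uM KAM: median log10 fold change of treatment over DMSO control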;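 for 0.01 uM KAM: median log10 fold change of treatment over DMSO control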;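 for 0.1 uM KAM: median log10 fold change of treatment over DMSO control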;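 for 1 uM KAM: median log10 fold change of treatment over DMSO control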;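 for 10 uM KAM: median log10 fold change of treatment over DMSO control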
Assay type in all cases: binding
RIPK1 = molecular target: T1, RIPK1 (Homo sapiens, UniProt Q13546);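 for 0.001 uM KAM: median log10 fold change of treatment over DMSO control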;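 for 0.01 uM KAM: median log10 fold change of treatment over DMSO control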;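 for 0.1 uM KAM: median log10 fold change of treatment over DMSO control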;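 for 1 uM KAM: median log10 fold change of treatment over DMSO control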;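 for 10 uM KAM: median log10 fold change of treatment over DMSO control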
T1 construct: endogenous in cells; host or cells: K562
T1 sequence (Q13546 1-671): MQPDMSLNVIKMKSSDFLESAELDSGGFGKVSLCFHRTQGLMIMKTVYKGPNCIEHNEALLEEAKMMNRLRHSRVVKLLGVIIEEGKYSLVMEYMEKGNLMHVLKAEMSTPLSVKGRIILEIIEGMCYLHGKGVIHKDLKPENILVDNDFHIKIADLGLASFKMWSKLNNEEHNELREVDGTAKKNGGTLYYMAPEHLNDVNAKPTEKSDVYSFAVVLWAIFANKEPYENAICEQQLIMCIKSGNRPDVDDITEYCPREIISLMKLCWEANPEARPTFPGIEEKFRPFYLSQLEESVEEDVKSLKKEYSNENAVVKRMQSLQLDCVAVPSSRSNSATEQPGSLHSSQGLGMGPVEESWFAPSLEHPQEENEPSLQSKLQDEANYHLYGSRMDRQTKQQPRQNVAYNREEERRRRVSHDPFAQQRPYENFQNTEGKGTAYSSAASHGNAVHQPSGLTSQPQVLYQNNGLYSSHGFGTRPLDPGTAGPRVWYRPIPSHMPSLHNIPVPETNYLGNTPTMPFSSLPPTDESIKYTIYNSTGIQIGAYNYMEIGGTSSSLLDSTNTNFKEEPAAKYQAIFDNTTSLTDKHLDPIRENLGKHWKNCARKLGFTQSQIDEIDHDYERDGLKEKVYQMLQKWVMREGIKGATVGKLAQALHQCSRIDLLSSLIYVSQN
Experimental: (§1) Supplement 12953_2017_125_MOESM1_ESM.zip/MS_Supp Info.xlsx, sheet "KAM" | column: 10 uM KAM; 1 uM KAM; 0.1 uM KAM; 0.01 uM KAM; 0.001 uM KAM; RB50

FER = molecular target: T2, FER (Homo sapiens, UniProt P16591)
T2 construct: endogenous in cells; host or cells: K562 lysate
T2 sequence (P16591 whole entry): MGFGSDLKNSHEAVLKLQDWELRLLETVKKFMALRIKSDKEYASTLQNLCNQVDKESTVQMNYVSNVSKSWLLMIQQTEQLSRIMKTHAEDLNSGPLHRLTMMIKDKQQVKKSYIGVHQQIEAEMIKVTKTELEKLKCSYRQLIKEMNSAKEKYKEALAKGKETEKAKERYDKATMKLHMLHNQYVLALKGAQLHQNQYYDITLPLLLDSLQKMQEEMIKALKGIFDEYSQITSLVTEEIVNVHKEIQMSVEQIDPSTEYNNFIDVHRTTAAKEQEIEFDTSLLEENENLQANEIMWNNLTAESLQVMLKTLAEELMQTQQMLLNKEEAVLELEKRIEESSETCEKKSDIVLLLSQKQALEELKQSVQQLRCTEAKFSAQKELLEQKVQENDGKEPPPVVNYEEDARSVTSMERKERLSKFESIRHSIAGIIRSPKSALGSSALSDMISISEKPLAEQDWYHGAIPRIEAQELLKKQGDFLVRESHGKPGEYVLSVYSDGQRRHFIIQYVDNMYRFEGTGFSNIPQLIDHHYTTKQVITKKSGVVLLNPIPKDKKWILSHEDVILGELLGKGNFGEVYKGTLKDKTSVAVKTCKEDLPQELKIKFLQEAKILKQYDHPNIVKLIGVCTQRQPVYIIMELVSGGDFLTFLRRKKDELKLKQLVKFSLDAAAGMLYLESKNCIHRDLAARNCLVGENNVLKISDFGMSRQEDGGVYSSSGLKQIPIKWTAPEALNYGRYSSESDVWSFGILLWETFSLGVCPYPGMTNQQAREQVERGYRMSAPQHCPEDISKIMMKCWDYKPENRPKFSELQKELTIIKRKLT
Experimental: as §1

TGFBR1 = molecular target: T3, TGFBR1 (Homo sapiens, UniProt P36897)
T3 construct: endogenous in cells; host or cells: K562
T3 sequence (P36897 34-503): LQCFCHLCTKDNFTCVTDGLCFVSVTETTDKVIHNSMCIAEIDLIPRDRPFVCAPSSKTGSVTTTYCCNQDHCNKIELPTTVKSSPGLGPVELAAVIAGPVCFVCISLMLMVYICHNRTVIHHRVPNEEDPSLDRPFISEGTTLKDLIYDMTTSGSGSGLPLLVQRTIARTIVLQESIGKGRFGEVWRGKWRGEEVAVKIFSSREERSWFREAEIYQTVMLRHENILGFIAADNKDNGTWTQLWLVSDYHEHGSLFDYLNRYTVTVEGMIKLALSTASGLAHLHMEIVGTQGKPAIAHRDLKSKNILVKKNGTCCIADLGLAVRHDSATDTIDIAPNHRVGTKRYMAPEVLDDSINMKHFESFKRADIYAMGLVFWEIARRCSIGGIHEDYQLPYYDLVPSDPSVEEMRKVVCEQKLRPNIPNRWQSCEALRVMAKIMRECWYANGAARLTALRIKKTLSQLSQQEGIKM
Experimental: as §1

MAPK1 = molecular target: T4, MAPK1 (Homo sapiens, UniProt P28482)
T4 construct: endogenous in cells; host or cells: K562
T4 sequence (P28482 whole entry): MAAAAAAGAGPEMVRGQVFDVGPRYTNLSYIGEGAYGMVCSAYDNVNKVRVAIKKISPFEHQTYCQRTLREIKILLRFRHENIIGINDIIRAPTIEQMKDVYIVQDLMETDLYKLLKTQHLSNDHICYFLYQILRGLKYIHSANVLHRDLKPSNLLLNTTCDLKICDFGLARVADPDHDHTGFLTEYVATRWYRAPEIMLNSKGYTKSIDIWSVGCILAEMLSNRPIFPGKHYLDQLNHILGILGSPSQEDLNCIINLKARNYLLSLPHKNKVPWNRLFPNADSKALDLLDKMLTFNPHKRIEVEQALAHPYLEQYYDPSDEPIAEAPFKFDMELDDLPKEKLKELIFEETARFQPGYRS
Experimental: as §1

TP53RK = molecular target: T5, TP53RK (Homo sapiens, UniProt Q96S44);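 for 0.001 uM KAM: median log10 fold change of treatment over DMSO control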;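 for 0.01 uM KAM: median log10 fold change of treatment over DMSO control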;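 for 0.1 uM KAM: median log10 fold change of treatment over DMSO control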;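 for 1 uM KAM: median log10 fold change of treatment over DMSO control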;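 for 10 uM KAM: median log10 fold change of treatment over DMSO control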
T5 construct: endogenous in cells; host or cells: K562
T5 sequence (Q96S44 1-253): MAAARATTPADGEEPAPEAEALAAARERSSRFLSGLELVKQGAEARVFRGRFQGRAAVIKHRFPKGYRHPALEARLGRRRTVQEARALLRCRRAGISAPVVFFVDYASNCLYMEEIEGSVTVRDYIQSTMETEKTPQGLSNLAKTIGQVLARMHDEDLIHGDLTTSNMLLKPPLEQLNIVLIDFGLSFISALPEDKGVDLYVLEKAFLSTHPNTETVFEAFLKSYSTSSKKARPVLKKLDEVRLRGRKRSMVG
Experimental: as §1

STK16 = molecular target: T6, STK16 (Homo sapiens, UniProt O75716)
T6 construct: K562 cell pellets were thawed on ice and resuspended in cold Lysis buffer; endogenous in cells; host or cells: K562
T6 sequence (O75716 whole entry): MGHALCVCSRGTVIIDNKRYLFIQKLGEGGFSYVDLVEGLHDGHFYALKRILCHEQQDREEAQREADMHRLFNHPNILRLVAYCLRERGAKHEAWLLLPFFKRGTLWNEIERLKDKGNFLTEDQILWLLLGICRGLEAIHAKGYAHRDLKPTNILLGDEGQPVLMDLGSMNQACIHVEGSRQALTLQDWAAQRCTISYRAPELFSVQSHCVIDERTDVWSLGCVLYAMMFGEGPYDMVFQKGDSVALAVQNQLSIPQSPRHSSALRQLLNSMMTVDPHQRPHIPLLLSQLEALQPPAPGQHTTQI
Experimental: as §1

STK25 = molecular target: T7, STK25 (Homo sapiens, UniProt O00506);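 for 0.001 uM KAM: median log10 fold change of treatment over DMSO control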;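 for 0.01 uM KAM: median log10 fold change of treatment over DMSO control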;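 for 0.1 uM KAM: median log10 fold change of treatment over DMSO control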;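 for 1 uM KAM: median log10 fold change of treatment over DMSO control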;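 for 10 uM KAM: median log10 fold change of treatment over DMSO control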
T7 construct: endogenous in cells; host or cells: K562 cell lysate
T7 sequence (O00506 whole entry): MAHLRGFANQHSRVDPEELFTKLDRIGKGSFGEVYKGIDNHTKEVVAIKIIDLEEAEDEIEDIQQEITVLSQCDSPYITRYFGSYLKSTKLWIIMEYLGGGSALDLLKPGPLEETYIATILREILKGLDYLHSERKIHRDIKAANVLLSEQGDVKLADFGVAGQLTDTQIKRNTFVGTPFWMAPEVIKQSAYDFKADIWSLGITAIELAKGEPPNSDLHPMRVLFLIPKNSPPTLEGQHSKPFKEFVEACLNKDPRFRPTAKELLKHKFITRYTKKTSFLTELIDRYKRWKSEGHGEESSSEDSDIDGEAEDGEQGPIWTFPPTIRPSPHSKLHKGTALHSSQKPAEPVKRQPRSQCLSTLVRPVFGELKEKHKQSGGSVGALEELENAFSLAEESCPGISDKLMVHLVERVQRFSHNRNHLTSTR
Experimental: as §1

[1] = KAM 0.001-10 uM, read-out: RB50 (the source's name)
[2] = read-out: RB50 (the source's name)

## N#CCc1ccc(Nc2nc(NCCCN)cc(Nc3cc(C4CC4)[nH]n3)n2)cc1 [KAM]
RIPK1; [1]
  IC50: > 10000 nM
RIPK1; relative to 0 uM KAM = 0
  0.001 uM KAM: -0.02132
  0.01 uM KAM: 0.0003889
  0.1 uM KAM: -0.08047
  1 uM KAM: -0.1016
  10 uM KAM: -0.1828
FER; 0.001 uM KAM
  median Log10 fold change: -0.01643
FER; 0.01 uM KAM
  median Log10 fold change: -0.02602
FER; 0.1 uM KAM
  median Log10 fold change: -0.1873
FER; 1 uM KAM
  median Log10 fold change: -0.4903
FER; 10 uM KAM
  median Log10 fold change: -0.6195
FER; [2]
  IC50: 319 nM
TGFBR1; 0.001 uM KAM
  median Log10 fold change: 0.003086
TGFBR1; 0.01 uM KAM
  median Log10 fold change: -0.03819
TGFBR1; 0.1 uM KAM
  median Log10 fold change: -0.2662
TGFBR1; 1 uM KAM
  median Log10 fold change: -0.4673
TGFBR1; 10 uM KAM
  median Log10 fold change: -0.5096
TGFBR1; [2]
  IC50: 202 nM
MAPK1; 0.001 uM KAM
  median Log10 fold change: -0.0422
MAPK1; 0.01 uM KAM
  median Log10 fold change: -0.03333
MAPK1; 0.1 uM KAM
  median Log10 fold change: -0.1132
MAPK1; 1 uM KAM
  median Log10 fold change: -0.2315
MAPK1; 10 uM KAM
  median Log10 fold change: -0.3482
MAPK1; [2]
  IC50: 3180 nM
TP53RK; [1]
  IC50: > 10000 nM
TP53RK; relative to 0 uM KAM = 0
  0.001 uM KAM: 0.009964
  0.01 uM KAM: 0.004194
  0.1 uM KAM: 0.08221
  1 uM KAM: 0.04146
  10 uM KAM: -0.01189
STK16; 0.001 uM KAM
  median Log10 fold change: -0.0101
STK16; 0.01 uM KAM
  median Log10 fold change: -0.01878
STK16; 0.1 uM KAM
  median Log10 fold change: -0.1698
STK16; 1 uM KAM
  median Log10 fold change: -0.3768
STK16; 10 uM KAM
  median Log10 fold change: -0.4318
STK16; [2]
  IC50: 673 nM
STK25; [1]
  IC50: > 10000 nM
STK25; relative to 0 uM KAM = 0
  0.001 uM KAM: -0.05569
  0.01 uM KAM: -0.0234
  0.1 uM KAM: -0.1788
  1 uM KAM: -0.2616
  10 uM KAM: -0.2742
